Measured values taken from ChEMBL document CHEMBL3797190, “Development of 3,5-Dinitrobenzylsulfanyl-1,3,4-oxadiazoles and Thiadiazoles as Selective Antitubercular Agents Active Against Replicating and Nonreplicating Mycobacterium tuberculosis” (J Med Chem, 2016).
≈ marks a conversion by molar mass, not a printed value. Calls of active or inactive are those of the source. No cut-off for these calls is given here.

How the values were obtained:
[1] = tested on: Mycobacterium tuberculosis; assay: Antimycobacterial activity against Mycobacterium tuberculosis H37Ra assessed as growth inhibition at 0.2 ug/ml preincubated for 24 hrs followed by radiolabeling with [14C]-acetate for 24 hrs; type: functional; settings: read-out: GI
[2] = tested on: Mycobacterium tuberculosis H37Ra; assay: Inhibition of DprE1 in Mycobacterium tuberculosis H37Ra assessed as accumulation of trehalose dimycolate at 0.2 ug/ml preincubated for 24 hrs followed by radiolabeling with [14C]-acetate for 24 hrs by TLC/autoradiographic method
Mycobacterium kansasii [3] = assay: Antimycobacterial activity against Mycobacterium kansasii CNCTC My 235/80 after 14 days by microdilution method; type: functional; settings: CNCTC My 235/80, 336 h
[4] = Cytotoxicity against human HeLa cells assessed as cell viability at 20 uM after 48 hrs by MTS assay; type: cell-based; settings: read-out: Activity
[5] = Cytotoxicity against primary human hepatocytes assessed as cell viability at 20 uM after 48 hrs by MTS assay; type: cell-based, Hepatocyte; settings: read-out: Activity
[6] = tested on: Mycobacterium tuberculosis; assay: Antimycobacterial activity against Mycobacterium tuberculosis CNCTC My 331/88 after 21 days by microdilution method; type: functional; settings: CNCTC My 331/88, 504 h
[7] = tested on: Mycobacterium tuberculosis; assay: Antimycobacterial activity against Mycobacterium tuberculosis CNCTC My 331/88 after 14 days by microdilution method; type: functional; settings: CNCTC My 331/88, 336 h
HeLa [8] = assay: Cytotoxicity against human HeLa cells assessed as cell viability after 48 hrs by MTS assay; type: cell-based
Mycobacterium kansasii [9] = assay: Antimycobacterial activity against Mycobacterium kansasii CNCTC My 6509/96 after 14 days by microdilution method; type: functional; settings: CNCTC My 6509/96, 336 h
Hepatocyte = assay: Cytotoxicity against primary human hepatocytes assessed as cell viability after 48 hrs by MTS assay; type: cell-based
[10] = Cytotoxicity against MDCK2-MDR1 cells assessed as cell viability at 20 uM after 48 hrs by MTS assay; type: ADME, cell-based, Canis lupus familiaris, MDCK-II; settings: dog, read-out: Activity
HeLa [11] = assay: Cytotoxicity against human HeLa cells assessed as cell viability after 24 hrs by MTS assay; type: cell-based
[12] = Cytotoxicity against MDCK2-MDR1 cells assessed as cell viability at 20 uM after 24 hrs by MTS assay; type: ADME, cell-based, Canis lupus familiaris, MDCK-II; settings: dog, read-out: Activity
Mycobacterium kansasii [13] = assay: Antimycobacterial activity against Mycobacterium kansasii CNCTC My 6509/96 after 21 days by microdilution method; type: functional; settings: CNCTC My 6509/96, 504 h
[14] = Cytotoxicity against human HuH7 cells assessed as cell viability at 20 uM after 48 hrs by MTS assay; type: cell-based, Huh-7; settings: read-out: Activity
Mycobacterium avium [15] = assay: Antimycobacterial activity against Mycobacterium avium CNCTC My 330/88 after 21 days by microdilution method; type: functional; settings: CNCTC My 330/88, 504 h
Mycobacterium kansasii [16] = assay: Antimycobacterial activity against Mycobacterium kansasii CNCTC My 235/80 after 7 days by microdilution method; type: functional; settings: CNCTC My 235/80, 168 h
[17] = Cytotoxicity against human HuH7 cells assessed as cell viability after 24 hrs by MTS assay; type: cell-based; settings: Huh-7, 24 h
[18] = Cytotoxicity against human HeLa cells assessed as cell viability at 20 uM after 24 hrs by MTS assay; type: cell-based; settings: read-out: Activity
Mycobacterium avium [19] = assay: Antimycobacterial activity against Mycobacterium avium CNCTC My 330/88 after 14 days by microdilution method; type: functional; settings: CNCTC My 330/88, 336 h
[20] = Cytotoxicity against human HuH7 cells assessed as cell viability at 20 uM after 24 hrs by MTS assay; type: cell-based, Huh-7; settings: read-out: Activity
[21] = Cytotoxicity against MDCK2-MDR1 cells assessed as cell viability after 48 hrs by MTS assay; type: ADME, cell-based; settings: Canis lupus familiaris, MDCK-II
Mycobacterium kansasii [22] = assay: Antimycobacterial activity against Mycobacterium kansasii CNCTC My 6509/96 after 7 days by microdilution method; type: functional; settings: CNCTC My 6509/96, 168 h
[23] = Cytotoxicity against MDCK2-MDR1 cells assessed as cell viability after 24 hrs by MTS assay; type: ADME, cell-based; settings: Canis lupus familiaris, MDCK-II
Salmonella typhimurium [24] = assay: Mutagenic activity in Salmonella typhimurium TA100 assessed as reverse mutation at 30 uM by Ames test; type: toxicity, organism-based; settings: salmonella enterica subsp. enterica serovar typhimurium
Mycobacterium kansasii [25] = assay: Antimycobacterial activity against Mycobacterium kansasii CNCTC My 235/80 after 21 days by microdilution method; type: functional; settings: CNCTC My 235/80, 504 h
Salmonella typhimurium [26] = assay: Mutagenic activity in Salmonella typhimurium TA98 assessed as reverse mutation at 30 uM by Ames test; type: toxicity, organism-based; settings: salmonella enterica subsp. enterica serovar typhimurium
[27] = tested on: Mycobacterium tuberculosis; assay: Antimycobacterial activity against Mycobacterium tuberculosis H37Rv after 7 days by HTS assay; type: functional; settings: 168 h
[28] = tested on: Mycobacterium tuberculosis; assay: Antimycobacterial activity against Mycobacterium tuberculosis H37Ra assessed as growth inhibition at 0.05 ug/ml preincubated for 1 hr followed by radiolabeling with [14C]-uracil, [14C]-methionine for 24 hrs; type: functional, organism-based
[29] = tested on: Mycobacterium tuberculosis; assay: Inhibition of RNA biosynthesis in Mycobacterium tuberculosis H37Ra assessed as reduction of [14C]-uracil incorporation at 0.05 ug/ml preincubated for 1 hr followed by radiolabeling with [14C]-uracil for 24 hrs by scintillation spectrometry; type: functional
[30] = tested on: Mycobacterium tuberculosis; assay: Inhibition of proteosynthesis in Mycobacterium tuberculosis H37Ra assessed as reduction of [14C]-methionine incorporation at 0.05 ug/ml preincubated for 1 hr followed by radiolabeling with [14C]-methionine for 24 hrs by scintillation spectrometry; type: functional
[31] = Cytotoxicity against human HuH7 cells assessed as cell viability after 48 hrs by MTS assay; type: cell-based; settings: Huh-7, 48 h

Row | Compound | viability at 48 h, 20 µM [4] [%] | viability at 48 h, 20 µM [5] [%] | IC50 (HeLa [8]) [µM] | IC50 (Hepatocyte) [µM] | viability at 48 h, 20 µM [10] [%] | IC50 (HeLa [11]) [µM] | viability at 24 h, 20 µM [12] [%] | viability at 48 h, 20 µM [14] [%] | IC50 [17] [µM] | viability at 24 h, 20 µM [18] [%] | viability at 24 h, 20 µM [20] [%] | IC50 [21] [µM] | IC50 [23] [µM] | further results
1 | C[C@H]1COC2(CCN(c3nc(=O)c4cc(C(F)(F)F)cc([N+](=O)[O-])c4s3)CC2)O1 [BTZ-043] |  |  |  |  |  |  |  |  |  |  |  |  |  | inhibition of growth at 0.2 µg/mL [1]: 38%; inhibition [2]: Active
2 | COc1cccc(-c2nnc(SCc3cc([N+](=O)[O-])cc([N+](=O)[O-])c3)s2)c1 | 17.5 | 121 | 4 | > 20 | 18.5 | > 20 | 100 | 33 | > 20 | 71.2 | 86.3 | 6.4 | > 20 | MIC99 (Mycobacterium kansasii [3]): 0.5 µM (≈ 0.202 µg/mL); MIC99 [6]: 0.06 µM (≈ 0.0243 µg/mL); MIC99 [7]: ≤ 0.03 µM; MIC99 (Mycobacterium kansasii [9]): 0.5 µM (≈ 0.202 µg/mL); MIC99 (Mycobacterium kansasii [13]): 0.5 µM (≈ 0.202 µg/mL); MIC99 (Mycobacterium avium [15]): 16 µM (≈ 6.47 µg/mL); MIC99 (Mycobacterium kansasii [16]): 0.25 µM (≈ 0.101 µg/mL); MIC99 (Mycobacterium avium [19]): 8 µM (≈ 3.24 µg/mL); MIC99 (Mycobacterium kansasii [22]): 0.25 µM (≈ 0.101 µg/mL); Activity (Salmonella typhimurium [24]): Non-toxic; MIC99 (Mycobacterium kansasii [25]): 0.5 µM (≈ 0.202 µg/mL); Activity (Salmonella typhimurium [26]): Non-toxic
3 | COC(=O)CSc1nnc(-c2ccc(C(C)(C)C)cc2)s1 |  |  |  |  |  |  |  |  |  |  |  |  |  | IC90 [27]: 0.62 µM
4 | CO[C@H]1/C=C/O[C@@]2(C)Oc3c(C)c(O)c4c(O)c(c(/C=N/N5CCN(C)CC5)c(O)c4c3C2=O)NC(=O)/C(C)=C\C=C\[C@H](C)[C@H](O)[C@@H](C)[C@@H](O)[C@@H](C)[C@H](OC(C)=O)[C@@H]1C [RIFAMPIN] | 100 | 123 | > 20 | > 20 | 106 | > 20 | 103 | 52.7 | > 20 | 102 | 98.3 | > 20 | > 20 | growth inhibition (GI) [28]: Active; inhibition at 0.05 µg/mL [29]: 68%; inhibition at 0.05 µg/mL [30]: 61%; IC50 [31]: > 20 µM
